Values joined by “and” are separate entries in the source; they are usually repeats but may differ in a detail not shown here. Identical values can stand only once. Toxic doses and inconclusive results are not listed.
Tested on: L1210 leukemia ip in BDF1 mice, survival T/C
Experiment: NCI In Vivo Anticancer Drug Screen. Data for tumor model L1210 Leukemia (intraperitoneal) in B6D2F1 (BDF1) mice
Details: endpoint: mean survival time, higher = longer survival
How it was run: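 Transplanted-tumor mice were given test agent; controls received vehicle only. Survival readings from the two groups were divided (treated over control).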

[1] = dose: 25.0 mg/kg/injection, schedule: Q01DX009 (ip), vehicle: Klucel (hydroxypropylcellulose) (HPC)
[2] = dose: 100.0 mg/kg/injection, schedule: Q01DX001 (ip), vehicle: Klucel (hydroxypropylcellulose) (HPC)
[3] = dose: 50.0 mg/kg/injection, schedule: Q01DX009 (ip), vehicle: Klucel (hydroxypropylcellulose) (HPC)
[4] = dose: 100.0 mg/kg/injection, schedule: Q01DX009 (ip), vehicle: Klucel (hydroxypropylcellulose) (HPC)
[5] = dose: 100.0 mg/kg/injection, schedule: Q04DX003 (ip), vehicle: saline with Tween-80
[6] = dose: 200.0 mg/kg/injection, schedule: Q04DX003 (ip), vehicle: saline with Tween-80
[7] = dose: 100.0 mg/kg/injection, schedule: Q04DX003 (ip), vehicle: Klucel (hydroxypropylcellulose) (HPC)
[8] = dose: 100.0 mg/kg/injection, schedule: Q01DX009 (ip), vehicle: saline with Tween-80
[9] = dose: 200.0 mg/kg/injection, schedule: Q01DX009 (ip), vehicle: saline with Tween-80
[10] = dose: 400.0 mg/kg/injection, schedule: Q04DX003 (ip), vehicle: saline with Tween-80
[11] = dose: 200.0 mg/kg/injection, schedule: Q01DX009 (ip), vehicle: Klucel (hydroxypropylcellulose) (HPC)
[12] = dose: 200.0 mg/kg/injection, schedule: Q04DX003 (ip), vehicle: Klucel (hydroxypropylcellulose) (HPC)
[13] = dose: 100.0 mg/kg/injection, schedule: Q01DX001 (ip), vehicle: carboxymethylcellulose (CMC)
[14] = dose: 400.0 mg/kg/injection, schedule: Q01DX001 (ip), vehicle: carboxymethylcellulose (CMC)
[15] = dose: 100.0 mg/kg/injection, schedule: Q04DX003 (ip), vehicle: saline
[16] = dose: 200.0 mg/kg/injection, schedule: Q04DX003 (ip), vehicle: saline

In the case of Cc1cn(Cc2ccc(Cl)cc2Cl)c(C)n1, the T/C (dose: 25.0 mg/kg/injection, schedule: Q01DX001 (ip), vehicle: Klucel (hydroxypropylcellulose) (HPC)) is reported as 100 % of control, the T/C [1] is reported as 97 % of control and 109 % of control and the T/C (dose: 50.0 mg/kg/injection, schedule: Q01DX001 (ip), vehicle: Klucel (hydroxypropylcellulose) (HPC)) is reported as 100 % of control. The T/C (dose: 50.0 mg/kg/injection, schedule: Q04DX002 (ip), vehicle: Klucel (hydroxypropylcellulose) (HPC)) was 102 % of control and 108 % of control and the T/C [2] was 94 % of control.

For Nc1cc(Cl)ccc1Oc1ccc(Cl)cc1, the T/C (dose: 37.5 mg/kg/injection, schedule: Q01DX009 (ip), vehicle: Klucel (hydroxypropylcellulose) (HPC)) was 103 % of control, the T/C (dose: 75.0 mg/kg/injection, schedule: Q01DX009 (ip), vehicle: Klucel (hydroxypropylcellulose) (HPC)) was 98 % of control and the T/C (dose: 150.0 mg/kg/injection, schedule: Q01DX009 (ip), vehicle: Klucel (hydroxypropylcellulose) (HPC)) was 95 % of control.

In the case of O=C(N/N=C(\C=N\NC(=O)c1ccccc1)CC(O)CO)c1ccccc1 (stereo not drawn), the T/C [1] is reported as 93 % of control, the T/C [3] is reported as 91 % of control and the T/C [4] is reported as 91 % of control. For the same compound, the T/C [5] was 94 % of control and the T/C [6] was 93 % of control.

With CS(=O)(=O)OCCN(CCOS(C)(=O)=O)c1ccc(C=Nc2ccc3ccccc3c2)cc1 the T/C (dose: 20.0 mg/kg/injection, schedule: Q04DX003 (ip), vehicle: Klucel (hydroxypropylcellulose) (HPC)) was 110 % of control, the T/C (dose: 40.0 mg/kg/injection, schedule: Q04DX003 (ip), vehicle: Klucel (hydroxypropylcellulose) (HPC)) was 117 % of control and the T/C (dose: 53.3 mg/kg/injection, schedule: Q04DX003 (ip), vehicle: Klucel (hydroxypropylcellulose) (HPC)) was 152 % of control. The T/C [7] was 120 % of control and the T/C (dose: 120.0 mg/kg/injection, schedule: Q04DX003 (ip), vehicle: Klucel (hydroxypropylcellulose) (HPC)) was 95 % of control and 100 % of control.

In the case of O=C(O)c1ccccc1/C=C/c1ccccc1, the T/C [8] is reported as 96 % of control, the T/C [5] is reported as 104 % of control and the T/C [9] is reported as 100 % of control. The T/C [6] was 101 % of control, the T/C (dose: 400.0 mg/kg/injection, schedule: Q01DX009 (ip), vehicle: saline with Tween-80) was 96 % of control and the T/C [10] was 101 % of control.

For COc1ccc([PH+](c2ccc(OC)cc2)c2ccc(OC)cc2)cc1.COc1ccc([PH+](c2ccc(OC)cc2)c2ccc(OC)cc2)cc1.[Cl][Hg][Cl], the T/C [3] was 108 % of control, the T/C [4] was 101 % of control and the T/C [11] was 93 % of control.

CCCCN(C)N=Nc1ccc(Cl)cc1C(N)=O was tested, and the T/C [2] was 102 % of control, the T/C [4] was 110 % of control and the T/C [7] was 109 % of control. For the same compound, the T/C (dose: 200.0 mg/kg/injection, schedule: Q01DX001 (ip), vehicle: Klucel (hydroxypropylcellulose) (HPC)) was 107 % of control, the T/C [11] was 105 % of control and the T/C [12] was 96 % of control. For the same compound, the T/C (dose: 400.0 mg/kg/injection, schedule: Q01DX001 (ip), vehicle: Klucel (hydroxypropylcellulose) (HPC)) was 98 % of control, the T/C (dose: 400.0 mg/kg/injection, schedule: Q01DX009 (ip), vehicle: Klucel (hydroxypropylcellulose) (HPC)) was 105 % of control and the T/C (dose: 400.0 mg/kg/injection, schedule: Q04DX003 (ip), vehicle: Klucel (hydroxypropylcellulose) (HPC)) was 93 % of control.

With N#Cc1ccccc1-c1ccccc1C#N the T/C [13] was 105 % of control, the T/C (dose: 200.0 mg/kg/injection, schedule: Q01DX001 (ip), vehicle: carboxymethylcellulose (CMC)) was 107 % of control and the T/C [14] was 107 % of control.

In the case of CC1(C)COC(CC2CCCCC2)=N1, the T/C (dose: 25.0 mg/kg/injection, schedule: Q01DX009 (ip), vehicle: saline with Tween-80) is reported as 105 % of control, the T/C (dose: 50.0 mg/kg/injection, schedule: Q01DX009 (ip), vehicle: saline with Tween-80) is reported as 102 % of control and the T/C (dose: 50.0 mg/kg/injection, schedule: Q04DX003 (ip), vehicle: saline) is reported as 94 % of control. The T/C [8] was 102 % of control, the T/C [15] was 91 % of control and the T/C [9] was 96 % of control. For the same compound, the T/C [16] was 86 % of control.

N#CC1CN2c3ccc4ccccc4c3CCC2C1=O (stereo not drawn) was tested, and the T/C (dose: 50.0 mg/kg/injection, schedule: Q01DX001 (ip), vehicle: saline) was 106 % of control, the T/C (dose: 100.0 mg/kg/injection, schedule: Q01DX001 (ip), vehicle: saline) was 104 % of control and the T/C (dose: 200.0 mg/kg/injection, schedule: Q01DX001 (ip), vehicle: saline) was 104 % of control.

With COc1cc2cc3c4ccccc4cc[n+]3c(C)c2cc1OC (tested in a mixture with another compound) the T/C (dose: 2.5 mg/kg/injection, schedule: Q01DX009 (ip), vehicle: saline) was 102 % of control, the T/C (dose: 5.0 mg/kg/injection, schedule: Q01DX009 (ip), vehicle: saline) was 110 % of control and the T/C (dose: 10.0 mg/kg/injection, schedule: Q01DX009 (ip), vehicle: saline) was 115 % of control. The T/C (dose: 20.0 mg/kg/injection, schedule: Q01DX009 (ip), vehicle: saline) was 121 % of control and the T/C (dose: 40.0 mg/kg/injection, schedule: Q01DX009 (ip), vehicle: saline) was 118 % of control.

With Nc1nc(N)nc(CCCCCc2nc(N)nc(N)n2)n1 the T/C (dose: 50.0 mg/kg/injection, schedule: Q01DX001 (ip), vehicle: carboxymethylcellulose (CMC)) was 93 % of control, the T/C [13] was 93 % of control and the T/C [14] was 95 % of control.

CCCCCCCCCCCCCCCCCC(=O)[O][Pb]([CH3])([CH3])[CH3] was tested, and the T/C (dose: 25.0 mg/kg/injection, schedule: Q04DX002 (ip), vehicle: Klucel (hydroxypropylcellulose) (HPC)) was 97 % of control.

For COc1cc(N(CCCl)CCCl)ccc1CN1CCCN(Cc2ccc(N(CCCl)CCCl)cc2OC)C1c1ccccc1O, the T/C [3] was 96 % of control, the T/C [4] was 109 % of control and the T/C [7] was 110 % of control. The T/C [11] was 90 % of control and the T/C [12] was 103 % of control.

O/N=C1\CCCC\C1=N/O.O/N=C1\CCCC\C1=N/O.[Pd] was tested, and the T/C (dose: 100.0 mg/kg/injection, schedule: Q01DX009 (ip), vehicle: other) was 94 % of control, the T/C (dose: 100.0 mg/kg/injection, schedule: Q04DX003 (ip), vehicle: other) was 102 % of control and the T/C (dose: 200.0 mg/kg/injection, schedule: Q01DX009 (ip), vehicle: other) was 107 % of control. The T/C (dose: 200.0 mg/kg/injection, schedule: Q04DX003 (ip), vehicle: other) was 98 % of control, the T/C (dose: 400.0 mg/kg/injection, schedule: Q01DX009 (ip), vehicle: other) was 91 % of control and the T/C (dose: 400.0 mg/kg/injection, schedule: Q04DX003 (ip), vehicle: other) was 90 % of control.

O=C1OCC/C1=C\c1ccc2c(c1)OCO2 was tested, and the T/C [5] was 105 % of control, the T/C [6] was 101 % of control and the T/C [10] was 90 % of control.

With O=c1cc(O)c2ccccc2o1 the T/C [3] was 104 % of control, the T/C [4] was 93 % of control and the T/C [11] was 90 % of control.

C[n+]1ccc(/C(N)=N/O)cc1 was tested, and the T/C (dose: 25.0 mg/kg/injection, schedule: Q01DX009 (ip), vehicle: saline) was 94 % of control and 106 % of control, the T/C (dose: 50.0 mg/kg/injection, schedule: Q01DX009 (ip), vehicle: saline) was 104 % of control and 105 % of control and the T/C (dose: 100.0 mg/kg/injection, schedule: Q01DX009 (ip), vehicle: saline) was 101 % of control and 107 % of control. The T/C (dose: 100.0 mg/kg/injection, schedule: Q04DX002 (ip), vehicle: saline) was 105 % of control, the T/C [15] was 101 % of control and the T/C (dose: 200.0 mg/kg/injection, schedule: Q04DX002 (ip), vehicle: saline) was 107 % of control. The T/C [16] was 97 % of control and the T/C (dose: 400.0 mg/kg/injection, schedule: Q04DX002 (ip), vehicle: saline) was 96 % of control.

— PubChem BioAssay AID248 (DTP/NCI, 2004)
